Patent US20230287083A1, “CD1 PEPTIDE-EPITOPE FOR USE IN THE TREATMENT OF A DISEASE CAUSED BY AN INT[…]” (priority 2020, published 2023)
Residues, ends and D or L forms follow the SMILES beside them.

Key:
HSV = test: Cellular immune response towards live-attenuated HSV vaccine after peptide pre-immunization; type: in vivo, BALB/c mice; conditions: one month after last injection
Experimental: BALB/c mice are immunized in footpath with 100 μg of peptide of SEQ ID NO:5 emulsified in complete Freund's adjuvant, and this injection is repeated once after an interval of 2 weeks, the second injection being made in incomplete Freund's adjuvant. A control group of BALB/c mice is treated with adjuvant alone.
All mice then receive a commercial preparation of live-attenuated HSV on 2 occasions separated by one month.
One month after the last injection, the immune response towards the vaccine is compared between the 2 groups.

NS5 [1] = test: Detection of NS5-specific NKT cells (PLZF staining) with JAWS2 presenting cells; type: in vivo, C57BL/6 mice; conditions: CD3+ cells incubated with JAWS2 presenting cells
Experimental: (§1) Peptide of SEQ ID NO:1 is emulsified in complete Freund's adjuvant and injected subcutaneously at a dose of 100 μg in a series of C57BL/6 mice, followed after 2 weeks by the same injection in incomplete Freund's adjuvant. A control group is injected according to the same schedule with adjuvant alone.
(§2) Two weeks after the last injection both groups of mice are treated by a subcutaneous injection of NS5 protein in alum, repeated every 2 weeks four times.
(§3) The spleen of all mice is obtained one month after the last injection and the population of CD3+ lymphocytes isolated by FACS sorting.
In parallel experiments CD3+ cells are incubated with JAWS2 as presenting cells.

NS5 [2] = test: Same NS5 experiment repeated in BALB/c mice; type: in vivo
NS5 [3] = test: NS5-specific activation of splenic CD3+ lymphocytes (3H-thymidine incorporation) after peptide pre-injection and NS5 vaccination; type: in vivo, C57BL/6 mice
Experimental: as §1, §2, §3
Cells are then maintained in culture in the presence of antigen-presenting cells loaded with NS5 and the proportion of activated cells numbered after 6 days by incorporation of 3H-thymidine.

SARS-CoV-2 S protein [4] = test: Specific anti-S protein antibody titers and isotypes in serum; type: in vivo, C57BL/6 mice; conditions: for specific anti-S protein antibody titers: vs control
Experimental: (§4) Peptide of SEQ ID NO:3 is used to immunize C57BL/6 mice at a dose of 100 μg emulsified in complete Freund's adjuvant, followed by a second injection of 100 μg in incomplete Freund's adjuvant 3 weeks later. A control group receives only the adjuvant.
(§5) Both groups of mice are then immunized with 100 μg of S protein in alum, administered at 2-week intervals, starting 3 weeks after injection of peptide of SEQ ID NO:3 (or adjuvant), for a total of 4 injections at 2 weeks interval.
(§6) The immune response towards S protein is then evaluated on splenocytes retrieved either 2 or 6 months after the last injection and titers of specific antibodies are evaluated on serum.

SARS-CoV-2 S protein [5] = test: Splenocyte immune response towards S protein after peptide pretreatment and S protein immunization; type: in vivo, C57BL/6 mice
Experimental: as §4, §5, §6

Coxsackie B4-V = Coxsackie B4-V infection, pancreas cellular infiltration / pancreatitis; type: in vivo, BALB/c mice
Experimental: BALB/c mice are immunized by footpath injection of 100 μg of peptide of SEQ ID NO:2 emulsified in Freund's adjuvant, on 2 occasions at a 2-weeks interval. A control group is injected with the adjuvant alone.
All mice are then immunized with the full polyprotein adsorbed on alum, using 100 μg per injection, for a total of 4 injections administered at an interval of 2 weeks.
Three weeks after the last injection, all mice are infected with 50 PFU of the B4-V strains in peritoneum.
Within 3 days after infection, the pancreas of 50% of the mice is isolated and examined for cellular infiltration. All mice in the control group show massive infiltration by mononuclear cells in the acini.

[6] = tested on: hemagglutinin from influenza A virus; set-up: species or system C57BL/6 mice; conditions: mouse, in vivo
[7] = tested on: hemagglutinin from influenza A virus; set-up: species or system C57BL/6 mice; conditions: mouse, in vivo; remark: listed apart in the source
[8] = tested on: hemagglutinin from influenza A virus; set-up: species or system C57BL/6 mice; conditions: mouse, in vivo; remark: listed apart in the source
[9] = C57BL/6, vs adjuvant-only control

Compound: CC(C)C[C@H](NC(=O)[C@H](Cc1c[nH]cn1)NC(=O)[C@H](CC(C)C)NC(=O)[C@H](Cc1ccccc1)NC(=O)[C@H](CC(C)C)NC(=O)[C@@H](N)C(C)C)C(=O)N[C@@H](Cc1ccc(O)cc1)C(=O)N[C@@H](CC(C)C)C(=O)N[C@@H](Cc1ccccc1)C(=O)N[C@@H](CC(C)C)C(=O)N[C@H](C(=O)O)[C@@H](C)O [peptide of SEQ ID NO:5, VL-FLHLYLF-LT] (H-VLFLHLYLFLT-OH)
- cells sharing a cytotoxicity potential (CD8+ T cells, NK cells, NKT cells) (HSV): significant expansion

Compound: AG-HGQVDNF-SL [peptide of SEQ ID NO:1]
- NS5-specific NKT cells detected by PLZF staining (NS5 [1]): found only in the group of mice which has been pre-sensitized with peptide of SEQ ID NO:1
- result of the same experiment in BALB/c mice (NS5 [2]): essentially the same results
- total number of NS5-specific cells (NS5 [3]; C57BL/6, 100 μg peptide s.c. in CFA then IFA before NS5 in alum, vs adjuvant-only control): significantly higher
- number of NS5-specific CD4 cells (NS5 [3]; [9]): higher number is observed
- number of NS5-specific CD8 cells (NS5 [3]; [9]): highly significant
- variation in numbers of CD4, CD8 and NKT cells between individuals and between strains (NS5 [3]; C57BL/6 and BALB/c, large variations in control groups): very little variation

Compound: ATR FASVYAW NRK (FASVYAWNRK) [peptide of SEQ ID NO:3]
- specific anti-S protein antibody titers (SARS-CoV-2 S protein [4]; 2 months after end of immunization): significantly higher titers
- isotypic distribution of anti-S protein antibodies (SARS-CoV-2 S protein [4]; 2 months, vs control group): dramatic shift from IgG1 in the control group towards IgG2a
- specific anti-S protein antibody titers (SARS-CoV-2 S protein [4]; 6 months after end of immunization): significantly higher titers
- isotypic distribution of anti-S protein antibodies (SARS-CoV-2 S protein [4]; after 6 months): shift was maintained
- number of CD8+ T cells relative to CD4+ T cells (SARS-CoV-2 S protein [5]; 2 months after last injection, reverse in control group): outweigh the number of CD4+ T cells
- number of CD8+ T cells relative to CD4+ T cells (SARS-CoV-2 S protein [5]; 6 months after last injection): same trend towards preferential CD8+ T cells
- numbers of CD3+ lymphocytes towards protein S (SARS-CoV-2 S protein [5]; vs control mice): significantly higher numbers

Compound: EK-FRDIRGF-LA [peptide of SEQ ID NO:2]
- pancreatitis signs (Coxsackie B4-V; day 10 after infection, control: persisting infiltration, disappearance of acini structure): complete resolution of pancreatitis signs
- pancreas cellular infiltration by mononuclear cells in the acini (Coxsackie B4-V; within 3 days after infection with 50 PFU B4-V, control: massive infiltration): moderate infiltration

Compound: GL-FGAIAGF-IE [peptide of SEQ ID NO:4]
- isotype distribution of anti-hemagglutinin antibodies in serum [6]: high concentrations of IgG2a
- type of immune response towards hemagglutinin (CD8+, NK and NKT cells) [7]: dominated by a Th1-like and cytotoxic response
- ratio of IFN-gamma over IL-4 production [8]: high ratio of IFN-gamma over IL-4
